Measured values from patent US12459891B2, “1-[1-(4-benzyloxy-3,5-difluoro-benzoyl)-4-fluoro-pyrrolidine-2-carbonyl]-pyrrolidine-2-carbonitrile” (ACCURE THERAPEUTICS, S.L., priority 2020, dated 2025).

Legend:
POP = conditions: non-competitive POP inhibitor; read-out: IC50 (POP inhibition); cited from earlier work
MK-801-treated mice = experiment: Novel object recognition (NOR) task, MK-801-induced cognitive deficit; format: in vivo, male C57/Bl6 mice; conditions: mean ± s.e.m.

Structure (SMILES)	IC50 (POP) [µM]	% discrimination index (MK-801-treated mice; MK 801 0.2 mg/kg sc alone (vehicle ip), intraperitoneal experiment) [%]	% discrimination index (MK-801-treated mice; MK 801 0.2 mg/kg sc alone (vehicle po), oral experiment) [%]
O=C(/C=C/c1ccc(O)c(O)c1)O[C@H](Cc1ccc(O)c(O)c1)C(=O)O [rosmarinic acid]	63.7		
C[C@]12N[C@H](Cc3ccccc31)c1ccccc12 [MK 801, Dizocilpine]		21 ± 4.7	16.6 ± 5.9
